From patent US8642629B2, “Naphthylacetic acids” (Hoffmann-La Roche Inc., priority 2008, dated 2014)

Biological target: T1, human CRTH2 (Homo sapiens, UniProt Q9Y5Y4)
T1 construct: expressed in transfected cells; host or cells: CHO-K1
T1 sequence (Q9Y5Y4 1-395): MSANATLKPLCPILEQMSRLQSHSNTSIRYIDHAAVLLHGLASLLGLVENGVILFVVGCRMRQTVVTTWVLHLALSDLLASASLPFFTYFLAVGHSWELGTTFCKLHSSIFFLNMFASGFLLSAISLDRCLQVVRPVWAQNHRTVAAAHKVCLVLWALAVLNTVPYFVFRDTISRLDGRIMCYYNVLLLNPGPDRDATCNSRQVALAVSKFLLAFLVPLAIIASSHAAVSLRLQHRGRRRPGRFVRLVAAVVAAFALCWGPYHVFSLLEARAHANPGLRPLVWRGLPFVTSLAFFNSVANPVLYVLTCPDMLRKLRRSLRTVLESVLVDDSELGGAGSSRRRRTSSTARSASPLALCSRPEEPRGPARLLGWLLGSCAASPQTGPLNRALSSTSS
Test: Human CRTH2 Receptor Binding Assay (whole cell, [3H]ramatroban competition)
Settings: CHO-K1 cells expressing human CRTH2 and G-alpha16; 20 nM [3H]ramatroban; 1 hour, room temperature
Description: A whole cell receptor binding assay using [^3H]ramatroban as the competing radioactive ligand was employed to evaluate the compound binding activity to human CRTH2. The radioactive ligand [^3H]ramatroban was synthesized according to Sugimoto et. al. (Eur. J. Pharmacol. 524, 30-37, 2005) to a specific activity of 42 Ci/mmol.
A cell line stably expressing human CRTH2 was established by transfecting CHO-K1 cells with two mammalian expression vectors that harbored human CRTH2 and G-alpha16 cDNAs, respectively, using FuGene® 6 transfection reagent (from Roche). Stable clones expressing CRTH2 were selected by staining each clone with BM16 (BD Pharmingen™ from BD Biosciences, a division of Becton, Dickinson and Company), which is a rat monoclonal antibody to human CRTH2. The cells were maintained as monolayer cultures in Ham's F-12 medium containing 10% fetal bovine serum, 100 units/mL penicillin, 100 μg/mL streptomycin, 2 mM glutamine, 0.5 mg/mL G418 (geneticin) for CRTH2, and 0.2 mg/mL hygromycin-B (for G-alpha 16). For whole cell receptor binding assay, the monolayer cells were rinsed once with PBS (phosphate buffered saline), dissociated using ethylenediaminetetraacetate (Versene™ EDTA from Lonza Inc.), and suspended in PBS containing 10 mM MgCl2 and 0.06% BSA (bovine serum albumin) at 1.5×10^6 cells/mL.
The binding reactions (0.2 mL) were performed in 96-well plates at room temperature in PBS containing 1.5×10^5 cells, 10 mM MgCl2, 0.06% BSA, 20 nM [^3H]ramatroban, and test compound at various concentrations. After 1 hour of binding reactions, the cells were harvested on GF™/B filter microplates (microtiter plates with embedded glass fiber from PerkinElmer, Inc.) and washed 5 times with PBS using a Filtermate™ Harvester (a cell harvester that harvests and washes cells from microplates from PerkinElmer, Inc.). The radioactivities bound to the cells were determined using a microplate scintillation counter (TopCount® NXT, from PerkinElmer, Inc.) after adding 50 μL of Microscint™ 20 scintillation fluid (from PerkinElmer, Inc.) to each well of the filter plates. The radioactivity from non-specific binding was determined by replacing compound with 10 μM of 15(R)-15-methyl PGD2 (from Cayman Chemical Company) in the reaction mixtures. The radioactivity bound to the cells in the absence of compound (total binding) was determined by replacing compound with 0.25% of DMSO (dimethyl sulfoxide) in the reaction mixture. Specific binding data were obtained by subtracting the radioactivity of non-specific binding from each binding data.
The IC50 value is defined as the concentration of the tested compound that is required for 50% inhibition of total specific binding. In order to calculate the IC50 value, the percent inhibition data were determined for 7 concentrations for each compound. The percent inhibition for a compound at each concentration was calculated according to the following formula, [1−(specific binding in the presence of compound)/(total specific binding)]×100. The IC50 value was then obtained by fitting the percent inhibition data to a sigmoidal dose-response (4 parameter logistic) model in the XLfit® software Excel add-in program [from ID Business Solutions Ltd., model 205, where F(x)=(A+(B−A)/(1+((C/x)^D)))].

## CCS(=O)(=O)c1ccc(Oc2c(C)c(CC(=O)O)cc3ccc(F)cc23)c(Cl)c1 [Example 2-21, [4-(2-chloro-4-ethanesulfonyl-phenoxy)-6-fluoro-3-methyl-naphthalen-2-yl]-acetic acid]
  IC50: 2.4 nM

## CCS(=O)(=O)c1ccc(Oc2cc(CC(=O)O)cc3ccc(C#N)cc23)nc1 [Example 14-1, [6-Cyano-4-(5-ethanesulfonyl-pyridin-2-yloxy)-naphthalen-2-yl]-acetic acid]
  IC50: 3.3 nM

## CCS(=O)(=O)c1ccc(Oc2cc(CC(=O)O)cc3cccc(F)c23)cc1 [Example 1-22, [4-(4-Ethanesulfonyl-phenoxy)-5-fluoro-naphthalen-2-yl]-acetic acid]
  IC50: 5.4 nM

## Cc1cc(Oc2cc(CC(=O)O)cc3ccc(F)cc23)ccc1S(C)(=O)=O [Example 1-7, [6-fluoro-4-(4-methanesulfonyl-3-methyl-phenoxy)-naphthalen-2-yl]-acetic acid]
  IC50: 3.5 nM

## Cc1c(CC(=O)O)cc2ccc(F)cc2c1Oc1cc(F)c(S(C)(=O)=O)cc1F [Example 2-15, [4-(2,5-difluoro-4-methanesulfonyl-phenoxy)-6-fluoro-3-methyl-naphthalen-2-yl]-acetic acid]
  IC50: 2.6 nM

## Cc1ccc(S(=O)(=O)c2ccc(Oc3c(C)c(CC(=O)O)cc4ccc(F)cc34)cc2)cc1 [Example 2-29, {6-fluoro-3-methyl-4-[4-(toluene-4-sulfonyl)-phenoxy]-naphthalen-2-yl}-acetic acid]
  IC50: 2.8 nM

## Cc1c(CC(=O)O)cc2ccc(F)cc2c1Oc1ccc(S(C)(=O)=O)cc1F [Example 2-12, [6-fluoro-4-(2-fluoro-4-methanesulfonyl-phenoxy)-3-methyl-naphthalen-2-yl]-acetic acid]
  IC50: 1.8 nM

## Cc1c(CC(=O)O)cc2ccc(F)cc2c1Oc1ccc(S(=O)(=O)C2CC2)cc1 [Example 2-5, [4-(4-cyclopropanesulfonyl-phenoxy)-6-fluoro-3-methyl-naphthalen-2-yl]-acetic acid]
  IC50: 3.5 nM

## Cc1c(CC(=O)O)cc2ccc(F)cc2c1Oc1ccc(S(C)(=O)=O)cc1Cl [Example 2-20, [4-(2-chloro-4-methanesulfonyl-phenoxy)-6-fluoro-3-methyl-naphthalen-2-yl]-acetic acid]
  IC50: 2.5 nM

## Cc1c(CC(=O)O)cc2ccc(F)cc2c1Oc1ccc(C#N)cc1 [Example 2-44, [4-(4-cyano-phenoxy)-6-fluoro-3-methyl-naphthalen-2-yl]-acetic acid]
  IC50: 10 nM

## CCS(=O)(=O)c1ccc(Oc2cc(CC(=O)O)cc3ccc(OC)cc23)cc1 [Example 1-15, [4-(4-Ethanesulfonyl-phenoxy)-6-methoxy-naphthalen-2-yl]-acetic acid]
  IC50: 5.3 nM

## CCS(=O)(=O)c1ccc(Oc2c(C)c(CC(=O)O)cc3ccc(F)cc23)cc1Cl [Example 2-19, [4-(3-chloro-4-ethanesulfonyl-phenoxy)-6-fluoro-3-methyl-naphthalen-2-yl]-acetic acid]
  IC50: 12.4 nM

## CCS(=O)(=O)c1ccc(Oc2c(C)c(CC(=O)O)cc3ccc(F)cc23)cc1 [Example 2-1, [4-(4-ethanesulfonyl-phenoxy)-6-fluoro-3-methyl-naphthalen-2-yl]-acetic acid]
  IC50: 3.2 nM

## CCS(=O)(=O)c1cnc(Oc2cc(CC(=O)O)cc3ccc(F)cc23)c(C)c1 [Example 1-12, [4-(5-ethanesulfonyl-3-methyl-pyridin-2-yloxy)-6-fluoro-naphthalen-2-yl]-acetic acid]
  IC50: 2.5 nM

## CS(=O)(=O)c1cnc(Oc2cc(CC(=O)O)cc3ccc(F)cc23)c(Br)c1 [Example 1-14, [4-(3-bromo-5-methanesulfonyl-pyridin-2-yloxy)-6-fluoro-naphthalen-2-yl]-acetic acid]
  IC50: 19.1 nM

## CCc1cc(S(=O)(=O)CC)cnc1Oc1c(C)c(CC(=O)O)cc2ccc(F)cc12 [Example 20-1, [4-(5-Ethanesulfonyl-3-ethyl-pyridin-2-yloxy)-6-fluoro-3-methyl-naphthalen-2-yl]-acetic acid]
  IC50: 2.9 nM

## CCCS(=O)(=O)c1ccc(Oc2c(C)c(CC(=O)O)cc3ccc(F)cc23)cc1 [Example 2-22, {6-fluoro-3-methyl-4-[4-(propane-1-sulfonyl)-phenoxy]-naphthalen-2-yl}-acetic acid]
  IC50: 2.4 nM

## CCS(=O)(=O)c1ccc(Oc2cc(CC(=O)O)cc3cc(F)ccc23)cc1 [Example 1-20, [4-(4-Ethanesulfonyl-phenoxy)-7-fluoro-naphthalen-2-yl]-acetic acid]
  IC50: 18.1 nM

## Cc1cc(S(C)(=O)=O)cnc1Oc1cc(CC(=O)O)cc2ccc(F)cc12 [Example 1-10, [6-fluoro-4-(5-methanesulfonyl-3-methyl-pyridin-2-yloxy)-naphthalen-2-yl]-acetic acid]
  IC50: 3.3 nM

## Cc1c(CC(=O)O)cc2ccc(Cl)cc2c1Oc1ccc(S(C)(=O)=O)cc1 [Example 2-7, [6-Chloro-4-(4-methanesulfonyl-phenoxy)-3-methyl-naphthalen-2-yl]-acetic acid]
  IC50: 2.2 nM

## Cc1c(CC(=O)O)cc2ccc(F)cc2c1Oc1ccc(S(=O)(=O)C(C)C)cc1 [Example 2-4, {6-fluoro-3-methyl-4-[4-(propane-2-sulfonyl)-phenoxy]-naphthalen-2-yl}-acetic acid]
  IC50: 2.8 nM

## CCS(=O)(=O)c1ccc(Oc2cc(CC(=O)O)cc3ccc(Br)cc23)nc1 [Example 12-1, [6-Bromo-4-(5-ethanesulfonyl-pyridin-2-yloxy)-naphthalen-2-yl]-acetic acid]
  IC50: 5.3 nM

## CS(=O)(=O)c1ccc(Oc2cc(CC(=O)O)cc3ccccc23)cc1 [Example 3-1, [4-(4-methanesulfonyl-phenoxy)-naphthalen-2-yl]-acetic acid]
  IC50: 12.9 nM

## Cc1c(CC(=O)O)cc2ccccc2c1Oc1ccc(S(C)(=O)=O)cc1 [Example 3-2, [4-(4-methanesulfonyl-phenoxy)-3-methyl-naphthalen-2-yl]-acetic acid]
  IC50: 4.7 nM

## CCS(=O)(=O)c1ccc(Oc2c(C)c(CC(=O)O)cc3ccc(F)cc23)cc1F [Example 2-17, [4-(4-ethanesulfonyl-3-fluoro-phenoxy)-6-fluoro-3-methyl-naphthalen-2-yl]-acetic acid]
  IC50: 3.7 nM

## CCS(=O)(=O)c1ccc(Oc2cc(CC(=O)O)cc3ccc(S(C)(=O)=O)cc23)cc1 [Example 16-1, [4-(4-Ethanesulfonyl-phenoxy)-6-methanesulfonyl-naphthalen-2-yl]-acetic acid]
  IC50: 91.5 nM

## CCS(=O)(=O)c1ccc(Oc2c(C)c(CC(=O)O)cc3ccc(F)cc23)c(F)c1 [Example 2-13, [4-(4-ethanesulfonyl-2-fluoro-phenoxy)-6-fluoro-3-methyl-naphthalen-2-yl]-acetic acid]
  IC50: 2.4 nM

## CCS(=O)(=O)c1ccc(Oc2cc(CC(=O)O)cc3ccc(OC)cc23)nc1 [Example 1-21, [4-(5-Ethanesulfonyl-pyridin-2-yloxy)-6-methoxy-naphthalen-2-yl]-acetic acid]
  IC50: 4.7 nM

## CCS(=O)(=O)c1ccc(Oc2cc(CC(=O)O)c(F)c3ccc(F)cc23)nc1 [Example 4-2, [1,6-difluoro-4-(5-ethanesulfonyl-pyridin-2-yloxy)-naphthalen-2-yl]-acetic acid]
  IC50: 21.3 nM

## Cc1c(CC(=O)O)cc2ccc(F)cc2c1Oc1ccc(S(=O)(=O)C2CCCC2)cc1 [Example 2-26, [4-(4-cyclopentanesulfonyl-phenoxy)-6-fluoro-3-methyl-naphthalen-2-yl]-acetic acid]
  IC50: 2.3 nM
